In patent US20190322676A1, “CERAMIDE GALACTOSYLTRANSFERASE INHIBITORS FOR THE TREATMENT OF DISEASE” (BioMarin Pharmaceutical Inc., priority 2016, published 2019) one finds IC50 data, which are given here for ten compounds.

Where a name gives a salt, the structure may show the parent alone.

The experiment concerns the target T1, human CGT (ceramide galactosyltransferase), CHO/CGT lysate (Homo sapiens, UniProt Q16880).
T1 construct: Full-length human CGT cDNA was cloned into the BamH1/Xho1 site of pcDNA3.1 (+); expressed in transfected cells; host or cells: Chinese hamster ovary (CHO) cells; lysate prepared with M-PER
T1 sequence (Q16880 21-541): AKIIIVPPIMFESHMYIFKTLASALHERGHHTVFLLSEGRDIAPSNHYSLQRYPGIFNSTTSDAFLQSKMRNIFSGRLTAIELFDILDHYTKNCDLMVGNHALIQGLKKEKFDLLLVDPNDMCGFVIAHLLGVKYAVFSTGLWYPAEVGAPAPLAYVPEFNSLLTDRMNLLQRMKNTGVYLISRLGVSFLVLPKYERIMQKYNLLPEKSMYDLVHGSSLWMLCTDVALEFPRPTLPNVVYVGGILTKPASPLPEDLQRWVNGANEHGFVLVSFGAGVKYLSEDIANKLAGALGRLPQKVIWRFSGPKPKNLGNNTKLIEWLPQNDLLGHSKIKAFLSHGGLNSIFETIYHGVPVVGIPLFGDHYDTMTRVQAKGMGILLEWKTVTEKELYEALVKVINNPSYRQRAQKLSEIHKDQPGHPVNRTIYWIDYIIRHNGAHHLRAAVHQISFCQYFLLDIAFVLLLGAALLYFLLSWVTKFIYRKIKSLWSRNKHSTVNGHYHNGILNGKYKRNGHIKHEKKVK
Kind of experiment: CGT enzyme assay, RapidFire/MS/MS readout (Table 1 ranges with one asterisk *). As to conditions: RapidFire method (range with one asterisk *). In kind it is biochemical. The procedure: Full-length human CGT cDNA was cloned into the BamH1/Xho1 site of pcDNA3.1 (+) mammalian expression vector (V90-20, Invitrogen, Carlsbad, Calif.) and the plasmid was transfected into Chinese hamster ovary (CHO) cells. Lysate was prepared using M-PER (Mammalian Protein Extraction Reagent, ThermoFisher Scientific, Grand Island, N.Y.) in the presence of a protease inhibitor cocktail (P8340, Sigma, Saint Louis, Mo.). Each 100 mm dish (100% confluent, approximately 1×10^7 cells) was lysed with 250 μL of M-PER containing protease inhibitors. Protein concentration was determined using a Pierce BCA protein assay kit (ThermoFisher Scientific). Four micrograms of CHO/CGT lysate was incubated with various concentrations of a compound (0.001 μM-50 μM) in 10 mM HEPES (pH 7.2) containing 35 μM dioleoylphosphatidylcholine, 5 mM MgCl2, 5 mM MnCl2, 1% BSA, 15 mM KCl, 1 mM EGTA, 8 mM CHAPS, 10 μM C6-NBD-dihydro-ceramide and 17.5 μM UDP-galactose in a final reaction volume of 20 μL at 37° C. for 1 hour. The final concentration of DMSO was 0.5% in both compound-treated and mock-treated samples. Tween 80 (0.01%) was optionally added to the reaction mixture to help solubilize the compounds. Each individual reaction was diluted with 80 μL of methanol:acetronitrile (1:3) containing 5 μM N-docdecanoyl-NBD-galactosylceramide (internal standard) to stop the reaction. 200 μL H2O:acetonitile (1:1) was added to precipitate the protein. After sufficient mixing, the plates were centrifuged at 2469 g for 38 minutes, 200 μL of supernatant was transferred to a LC/MS 96-deep well plate and a second spin was performed at 2469 g for 10 minutes. The final supernatant was injected in triplicate for RapidFire/MS/MS analysis.
Quantitative Analysis Using the RapidFire/MS/MS Method:
The quantitative analysis of C6-NBD-dihydro-ceramide and C6-NBD-dihydro-galactosylceramide was performed on a Rapid Fire 360 high-throughput mass spectrometry system (Agilent Technologies, Palo Alto, Calif.) coupled with a API4000^+ triple quadrupole mass spectrometer (Applied Biosystems, Concord, Ontario, Canada). RapidFire software packages, including RapidFire Control panel, RapidFire UI and RapidFire Integrator (Agilent Technologies), were used to control the RapidFire instrument and to process data. Analyst 1.6.2 software packages (Applied Biosystems) were used to control the MS system and acquire MS data. […] of sample was loaded on a micro-scale C4 solid-phase extraction (SPE) cartridge (Agilent Technologies) and salts were removed using water supplemented with 0.1% formic acid at the flow rate of 1.5 mL/min for 3 sec. C6-NBD-dihydro-ceramide and C6-NBD-dihydro-galactosylceramide were co-eluted into the mass spectrometer using acetonitrile containing 0.1% formic acid at the flow rate of 1.0 mL/min for 3 sec. The total cycle time of one injection was 8 secs. The MS/MS detection was performed in ESI negative mode. The mass transition of C6-NBD-dihydro-galactosylceramide was m/z 752.6→678.6 using a −40 V collision energy, the mass transition of C6-NBD-dihydro-ceramide was m/z 590.6→115.8 using a −40 V collision energy and the mass transition of N-docdecanoyl-NBD-galactosylceramide was m/z 820.9→746.3 using a −45 V collision energy.
The C6-NBD-dihydro-galactosylceramide reading was normalized first by dividing the peak area of C6-NBD-dihydro-galactosylceramide by the peak area of the internal standard, N-docdecanoyl-NBD-galactosylceramide. IC50 values (see Table 1, where data ranges with one asterix (*) correspond to analysis using the RapidFire/MS/MS method, and data ranges with two asterixes (**) correspond to analysis using the RapidFire/MS/MS method with 0.01% Tween added) were generated from sigmoidal dose-response curves (variable slope) with GraphPad Prism software (GraphPad Software, Inc., San Diego, Calif.) using the normalized peak areas of C6-NBD-dihydro-galactosylceramide or the percent inhibition of C6-NBD-dihydro-galactosylceramide accumulation relative to DMSO control. […]
On to `COc1cc(C(F)(F)[C@@H](NS(=O)(=O)c2ccc3cc(OC4CCCC4)ccc3c2)C(=O)N2C3CCC2CC(N)C3)ccc1Cl` (single isomer, unassigned) [Compound 124-2], for which the IC50 (as a rule, the concentration that gives 50% inhibition) is 1 to 10 µM.
The compound `NC1CC2CCC(C1)N2C(=O)[C@@H](NS(=O)(=O)c1ccc2cc(OC3CCCC3)ccc2c1)C(F)(F)c1ccc(Cl)cc1` (stereo partly drawn) [Compound 28-1, N-((2R)-3-(3-amino-8-azabicyclo[3.2.1]octan-8-yl)-1-(4-chlorophenyl)-1,1-difluoro-3-oxopropan-2-yl)-6-(cyclopentyloxy)naphthalene-2-sulfonamide trifluoroacetate] gave an IC50 of less than 1 µM.
With `NC1CC2CCC(C1)N2C(=O)[C@H](NS(=O)(=O)c1ccc2cc(OC3CCCC3)ccc2c1)C(F)(F)c1ccc(Cl)cc1` (stereo partly drawn) [Compound 28-2, N-((2S)-3-(3-amino-8-azabicyclo[3.2.1]octan-8-yl)-1-(4-chlorophenyl)-1,1-difluoro-3-oxopropan-2-yl)-6-(cyclopentyloxy)naphthalene-2-sulfonamide trifluoroacetate] the figure was 1 to 10 µM.
With `NC1CC2CCC(C1)N2C(=O)[C@@H](NS(=O)(=O)c1ccc(OCC2CCCCC2)cc1)C(F)(F)c1ccc(Cl)cc1` (stereo partly drawn) [Compound 29-1, N-((2R)-3-(3-amino-8-azabicyclo[3.2.1]octan-8-yl)-1-(4-chlorophenyl)-1,1-difluoro-3-oxopropan-2-yl)-4-(cyclohexylmethoxy)benzenesulfonamide trifluoroacetate] the figure was less than 1 µM.
With `NC1CC2CCC(C1)N2C(=O)[C@H](NS(=O)(=O)c1ccc(OCC2CCCCC2)cc1)C(F)(F)c1ccc(Cl)cc1` (stereo partly drawn) [Compound 29-2, N-((2S)-3-(3-amino-8-azabicyclo[3.2.1]octan-8-yl)-1-(4-chlorophenyl)-1,1-difluoro-3-oxopropan-2-yl)-4-(cyclohexylmethoxy) benzenesulfonamide trifluoroacetate] the figure was 1 to 10 µM; with `NC1CCN(C(=O)[C@@H](NS(=O)(=O)c2ccc(OCC3CCCCC3)cc2)C(F)(F)c2ccc(Cl)cc2)CC1` [Compound 30-1, (R)—N-(3-(4-aminopiperidin-1-yl)-1-(4-chlorophenyl)-1,1-difluoro-3-oxopropan-2-yl)-4-(cyclohexylmethoxy)benzenesulfonamide trifluoroacetate], 1 to 10 µM; with `NC1CCN(C(=O)[C@H](NS(=O)(=O)c2ccc(OCC3CCCCC3)cc2)C(F)(F)c2ccc(Cl)cc2)CC1` [Compound 30-2, (S)—N-(3-(4-aminopiperidin-1-yl)-1-(4-chlorophenyl)-1,1-difluoro-3-oxopropan-2-yl)-4-(cyclohexylmethoxy)benzenesulfonamide trifluoroacetate], 10 to 30 µM.
The compound `CC(C)Oc1ccc2cc(S(=O)(=O)N[C@H](C(=O)N3C4CCC3CC(N)C4)C(F)(F)c3ccc(-c4ccccc4)cc3)ccc2c1` (stereo partly drawn) [Compound 31-1, N-((2R)-1-([1,1′-biphenyl]-4-yl)-3-(3-amino-8-azabicyclo[3.2.1]octan-8-yl)-1,1-difluoro-3-oxopropan-2-yl)-6-isopropoxynaphthalene-2-sulfonamide trifluoroacetate] registered an IC50 of 1 to 10 µM.
As for `CC(C)Oc1ccc2cc(S(=O)(=O)N[C@@H](C(=O)N3C4CCC3CC(N)C4)C(F)(F)c3ccc(-c4ccccc4)cc3)ccc2c1` (stereo partly drawn) [Compound 31-2, N-((2S)-1-([1,1′-biphenyl]-4-yl)-3-(3-amino-8-azabicyclo[3.2.1]octan-8-yl)-1,1-difluoro-3-oxopropan-2-yl)-6-isopropoxynaphthalene-2-sulfonamide trifluoroacetate], the IC50 was 10 to 30 µM.
Consider `NC1CCN(C(=O)[C@@H](NS(=O)(=O)c2ccc3cc(OC4CCCC4)ccc3c2)C(F)(F)c2ccc(Br)cc2)CC1` [Compound 32-1, (R)—N-(3-(4-aminopiperidin-1-yl)-1-(4-bromophenyl)-1,1-difluoro-3-oxopropan-2-yl)-6-(cyclopentyloxy)naphthalene-2-sulfonamide trifluoroacetate], for which the IC50 is less than 1 µM.
